# Experimental data: publication PMC9112336 (ACS infectious diseases, 2022)
# How the values were obtained:
# Type in all cases: cell-based
# [1] = tested on: GFP-Rab5 expressing HEK293 cells
# [2] = tested on: mCherry-LAMP1 expressing HEK293 cells
# [3] = tested on: mCherry-LAMP1 expressing HEK293 cells; remark: listed apart in the source
# [4] = tested on: vesicular acidification in HEK293 cells
# [5] = tested on: endocytic vesicle pH in HEK293 cells
# [6] = tested on: mCherry-LAMP1 expressing HEK293 cells; remark: listed apart in the source
smiles,measurement,setting,value
"CO/C1=C\C(C)=C\[C@@H](C)[C@@H](O)[C@@H](C)C/C(C)=C/C=C/[C@H](OC)[C@@H]([C@@H](C)[C@@H](O)[C@H](C)[C@@]2(O)C[C@@H](O)[C@H](C)[C@@H](C(C)C)O2)OC1=O [bafilomycin, bafilomycin A1]",average size of Rab5+ punctate vesicles,[1],400 nm
same,"average number of dilated vesicles >1 μm per cell, pre-treatment before apilimod",[2],~1
same,"average number of large, dilated vesicles per cell, treatment after apilimod",[3],~1
same,reversibility of inhibition of vesicular acidification,[4],full recovery of acridine orange pH-dependent shift to red was not observed
same,large (>1 μm) vesicle pHrodo fluorescence,[5],significant decrease
"COc1cc2c(O)c3c(c(-c4ccc5c(c4)OCO5)c2cc1OC)C(=O)OC3 [1.1, diphyllin]",acidification activity after the 24 h washout period,[4],90.2 ± 11.5%
same,"acidification activity, initial response (immediate post washout)",[4],57.5 ± 9.0%
"Cc1cccc(/C=N/Nc2cc(N3CCOCC3)nc(OCCc3ccccn3)n2)c1 [Apilimod, apilimod]",effect on LAMP1+ structures compared to DMSO,[6],significantly altered LAMP1 structures
